Laboratory results reported in ChEMBL document CHEMBL1201862, “PubChem BioAssay data set” (2004).
Each block holds one molecule with its values, some of them ahead of it. Activity calls are given as the source filed them.

What was measured:
[1] = target: T1, Cannabinoid receptor 1 (Homo sapiens, UniProt P21554); assay: SAR analysis of agonists of the Cannabinoid Receptor 1 using an Image-Based Assay - Set 3. [Related pubchem assays (depositor defined):AID1961, AID1965]; format: functional
[2] = target: G-protein coupled receptor 55 (Homo sapiens, UniProt Q9Y2T6); assay: SAR analysis of selective Agonists of GPR55 using an Image-Based Assay - Set 2. [Related pubchem assays (depositor defined):AID1961, AID1965]; format: functional
[3] = target: T1, Cannabinoid receptor 1; assay: SAR analysis of antagonists of the Cannabinoid Receptor 1 using an Image-Based Assay - Set 3. [Related pubchem assays (depositor defined):AID1961, AID1965]; format: functional
[4] = target: T2, Cannabinoid receptor 2 (Homo sapiens, UniProt P34972); assay: SAR analysis of antagonists of the Cannabinoid Receptor 2 using an Image-Based Assay - Set 2. [Related pubchem assays (depositor defined):AID1961, AID1965]; format: functional
[5] = target: T2, Cannabinoid receptor 2; assay: SAR analysis of agonists of the Cannabinoid Receptor 2 using an Image-Based Assay - Set 2. [Related pubchem assays (depositor defined):AID1961, AID1965]; format: functional
[6] = target: T3, G-protein coupled receptor 35 (Homo sapiens, UniProt Q9HC97); assay: SAR analysis of Antagonists of the GPR35 Receptor using an Image-Based Assay - Set 4. [Related pubchem assays (depositor defined):[…]]; format: functional
[7] = target: T3, G-protein coupled receptor 35; assay: SAR analysis of Agonists of the GPR35 Receptor using an Image-Based Assay - Set 3. [Related pubchem assays (depositor defined):AID1961, AID1965]; format: functional
[8] = target: T4, Kappa-type opioid receptor (Homo sapiens, UniProt P41145); assay: SAR analysis of small molecule antagonists of the kappa opioid receptor via a luminescent beta-arrestin assay - Set 6. [Related pubchem assays (depositor defined):AID1777, AID1778, AID1785, AID1786, AID1966, AID2133, AID2136, AID2285]; format: functional
[9] = target: T4, Kappa-type opioid receptor; assay: SAR analysis of small molecule antagonists of the kappa opioid receptor via a luminescent beta-arrestin assay - Set 3. [Related pubchem assays (depositor defined):AID1777, AID1778, AID1785, AID1786, AID1966, AID2133, AID2136, AID2285, AID2495]; format: functional
[10] = target: Delta-type opioid receptor (Homo sapiens, UniProt P41143); assay: SAR Analysis of Antagonists of the DOR Receptor using an Image-Based Assay - Set 3. [Related pubchem assays (depositor defined):AID1777, AID1785]; format: functional;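 also: U2OS cells expressing DOR1 and beta-arrestin GFP stimulated with 100 nM SNC80; imaging of GFP-tagged beta-arrestin moving into spots after receptor activation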
[11] = target: Mu-type opioid receptor (Homo sapiens, UniProt P35372); assay: SAR Analysis of Antagonists of the MOR Receptor using an Image-Based Assay - Set 3. [Related pubchem assays (depositor defined):AID1777, AID1785, AID1786, AID1966, AID2133, AID2136, AID2284, AID2285, AID2420]; format: functional
[12] = target: T4, Kappa-type opioid receptor; assay: SAR analysis of Antagonists of the Kappa Opioid Receptor (KOR) using an Image-Based Assay - Set 4. [Related pubchem assays (depositor defined):AID1777, AID1785]; format: functional
[13] = target: Ion channel NompC (Danio rerio, UniProt Q7T1G6); assay: Dose response cell-based high-throughput screening assay for agonists of the transient receptor potential channel N1 (TRPN1). [Related pubchem assays (depositor defined):AID1424, AID1448]; format: functional
[14] = target: Mucolipin-3 (Homo sapiens, UniProt Q8TDD5); assay: Fluorescence counterscreen assay for […] agonists: dose response cell-based high-throughput screening assay to identify agonists of the transient receptor potential channel ML3 (TRPML3). [Related pubchem assays: 1424, 1448 ]; format: functional
[15] = target: T5, High affinity choline transporter 1 (Homo sapiens, UniProt Q9GZV3); assay: CHT inhibitors, dose response, cell-based, 5-point CRC, membrane potential dye (AID 504840); format: functional
T5 sequence (Q9GZV3 whole entry): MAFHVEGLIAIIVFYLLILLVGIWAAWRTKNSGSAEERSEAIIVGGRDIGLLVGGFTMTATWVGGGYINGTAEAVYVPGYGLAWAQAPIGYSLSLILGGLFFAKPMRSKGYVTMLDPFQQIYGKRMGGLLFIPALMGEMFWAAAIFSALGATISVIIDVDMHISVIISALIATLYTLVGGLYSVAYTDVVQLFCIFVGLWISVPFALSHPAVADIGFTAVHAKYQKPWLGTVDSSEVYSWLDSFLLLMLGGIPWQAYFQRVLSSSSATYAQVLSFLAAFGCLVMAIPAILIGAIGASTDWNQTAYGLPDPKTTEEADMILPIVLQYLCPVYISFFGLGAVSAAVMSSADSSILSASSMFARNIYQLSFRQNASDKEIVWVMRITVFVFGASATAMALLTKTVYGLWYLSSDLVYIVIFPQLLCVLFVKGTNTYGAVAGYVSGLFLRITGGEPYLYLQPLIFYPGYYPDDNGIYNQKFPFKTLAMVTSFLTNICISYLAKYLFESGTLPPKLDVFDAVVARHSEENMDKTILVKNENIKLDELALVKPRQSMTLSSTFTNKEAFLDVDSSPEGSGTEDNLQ

[16] = target: DNA damage-inducible transcript 3 protein (Mus musculus, UniProt P35639); format: functional, Cricetulus griseus
[17] = target: T6, Coagulation factor XII (Homo sapiens, UniProt P00748); assay: Factor XIIa Dose Response Confirmation from Single Well HTS. [Related pubchem assays (depositor defined):AID701]; format: functional
T6 sequence (P00748 whole entry): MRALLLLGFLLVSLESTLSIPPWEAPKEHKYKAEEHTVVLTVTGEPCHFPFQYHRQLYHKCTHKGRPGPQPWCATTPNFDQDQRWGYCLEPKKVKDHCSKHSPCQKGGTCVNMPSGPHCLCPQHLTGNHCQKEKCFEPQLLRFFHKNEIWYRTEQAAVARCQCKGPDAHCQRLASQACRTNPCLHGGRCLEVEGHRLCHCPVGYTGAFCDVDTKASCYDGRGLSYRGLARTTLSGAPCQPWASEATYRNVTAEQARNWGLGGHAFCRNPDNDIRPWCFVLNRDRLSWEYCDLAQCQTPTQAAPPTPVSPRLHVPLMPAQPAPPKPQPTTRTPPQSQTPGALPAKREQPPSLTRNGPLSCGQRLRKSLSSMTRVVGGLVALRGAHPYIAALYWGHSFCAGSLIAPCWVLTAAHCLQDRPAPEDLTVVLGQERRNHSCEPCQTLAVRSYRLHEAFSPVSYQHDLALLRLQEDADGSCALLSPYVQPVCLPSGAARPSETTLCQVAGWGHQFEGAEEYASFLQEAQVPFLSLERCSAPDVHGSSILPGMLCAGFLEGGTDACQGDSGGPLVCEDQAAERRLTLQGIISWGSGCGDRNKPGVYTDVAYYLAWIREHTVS

T4 sequence (P41145 whole entry): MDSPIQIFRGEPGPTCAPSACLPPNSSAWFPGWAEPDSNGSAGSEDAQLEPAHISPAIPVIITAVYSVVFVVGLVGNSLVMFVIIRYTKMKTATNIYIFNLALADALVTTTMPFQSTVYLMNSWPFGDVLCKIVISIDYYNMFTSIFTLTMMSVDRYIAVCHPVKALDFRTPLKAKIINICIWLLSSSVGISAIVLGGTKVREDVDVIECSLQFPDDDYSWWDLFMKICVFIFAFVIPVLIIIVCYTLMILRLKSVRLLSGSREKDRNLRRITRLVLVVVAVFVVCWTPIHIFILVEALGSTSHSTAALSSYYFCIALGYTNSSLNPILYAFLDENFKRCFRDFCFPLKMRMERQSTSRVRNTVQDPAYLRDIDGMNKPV
T2 sequence (P34972 whole entry): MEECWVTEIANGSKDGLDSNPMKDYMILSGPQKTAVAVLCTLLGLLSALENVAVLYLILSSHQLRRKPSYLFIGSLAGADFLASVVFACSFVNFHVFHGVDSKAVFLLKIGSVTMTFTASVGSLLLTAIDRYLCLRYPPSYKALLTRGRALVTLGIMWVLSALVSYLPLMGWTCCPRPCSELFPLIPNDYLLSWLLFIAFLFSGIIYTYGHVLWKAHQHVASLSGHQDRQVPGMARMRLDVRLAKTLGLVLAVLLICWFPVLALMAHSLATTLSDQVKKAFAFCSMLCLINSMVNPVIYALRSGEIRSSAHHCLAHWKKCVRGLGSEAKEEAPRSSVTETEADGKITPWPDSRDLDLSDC
T3 sequence (Q9HC97 whole entry): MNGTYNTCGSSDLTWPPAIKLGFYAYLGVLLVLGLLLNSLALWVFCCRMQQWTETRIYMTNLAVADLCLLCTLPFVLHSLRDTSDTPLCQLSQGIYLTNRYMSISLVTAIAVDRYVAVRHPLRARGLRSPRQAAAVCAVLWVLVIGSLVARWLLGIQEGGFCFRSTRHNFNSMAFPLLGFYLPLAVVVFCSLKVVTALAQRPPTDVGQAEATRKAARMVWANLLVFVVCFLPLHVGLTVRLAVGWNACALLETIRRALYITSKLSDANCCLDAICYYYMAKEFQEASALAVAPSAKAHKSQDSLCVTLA
T1 sequence (P21554 whole entry): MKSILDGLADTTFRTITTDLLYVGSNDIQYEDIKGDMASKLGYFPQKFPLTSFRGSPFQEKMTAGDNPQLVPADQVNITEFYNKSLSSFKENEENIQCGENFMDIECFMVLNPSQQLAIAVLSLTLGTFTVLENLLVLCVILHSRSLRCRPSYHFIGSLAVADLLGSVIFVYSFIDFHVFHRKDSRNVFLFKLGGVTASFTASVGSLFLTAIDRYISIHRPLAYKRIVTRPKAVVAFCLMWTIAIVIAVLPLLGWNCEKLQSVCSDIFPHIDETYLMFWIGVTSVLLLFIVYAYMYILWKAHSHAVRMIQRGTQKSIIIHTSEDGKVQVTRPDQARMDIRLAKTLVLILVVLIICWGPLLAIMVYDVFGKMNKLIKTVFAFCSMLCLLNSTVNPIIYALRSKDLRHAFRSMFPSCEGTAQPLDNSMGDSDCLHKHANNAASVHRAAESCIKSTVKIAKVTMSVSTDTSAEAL
Sequence of G-protein coupled receptor 55 (Q9Y2T6 whole entry): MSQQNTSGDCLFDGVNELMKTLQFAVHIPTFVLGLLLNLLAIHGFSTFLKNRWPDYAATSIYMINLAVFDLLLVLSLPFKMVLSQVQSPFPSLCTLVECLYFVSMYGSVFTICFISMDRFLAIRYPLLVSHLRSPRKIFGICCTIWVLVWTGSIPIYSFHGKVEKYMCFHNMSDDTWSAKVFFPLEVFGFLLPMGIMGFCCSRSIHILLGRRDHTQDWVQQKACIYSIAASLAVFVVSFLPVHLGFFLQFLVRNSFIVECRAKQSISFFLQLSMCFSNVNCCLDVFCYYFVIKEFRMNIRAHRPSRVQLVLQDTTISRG
Sequence of DNA damage-inducible transcript 3 protein (P35639 whole entry): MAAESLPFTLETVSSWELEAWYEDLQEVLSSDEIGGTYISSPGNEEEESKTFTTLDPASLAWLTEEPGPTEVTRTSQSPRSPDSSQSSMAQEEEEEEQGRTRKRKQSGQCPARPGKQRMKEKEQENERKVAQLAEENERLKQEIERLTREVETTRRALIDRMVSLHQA
Sequence of Mu-type opioid receptor (P35372 whole entry): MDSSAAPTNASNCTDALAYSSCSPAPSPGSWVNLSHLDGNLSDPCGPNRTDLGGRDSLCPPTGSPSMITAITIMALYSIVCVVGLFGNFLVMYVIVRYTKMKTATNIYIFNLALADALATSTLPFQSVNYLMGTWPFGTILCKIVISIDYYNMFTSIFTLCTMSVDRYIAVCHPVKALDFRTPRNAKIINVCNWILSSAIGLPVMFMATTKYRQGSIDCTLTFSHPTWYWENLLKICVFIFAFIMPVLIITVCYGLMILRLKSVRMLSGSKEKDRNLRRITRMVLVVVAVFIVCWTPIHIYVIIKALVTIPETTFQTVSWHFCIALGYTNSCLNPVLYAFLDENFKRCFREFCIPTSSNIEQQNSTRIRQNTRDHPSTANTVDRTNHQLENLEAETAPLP
Sequence of Delta-type opioid receptor (P41143 whole entry): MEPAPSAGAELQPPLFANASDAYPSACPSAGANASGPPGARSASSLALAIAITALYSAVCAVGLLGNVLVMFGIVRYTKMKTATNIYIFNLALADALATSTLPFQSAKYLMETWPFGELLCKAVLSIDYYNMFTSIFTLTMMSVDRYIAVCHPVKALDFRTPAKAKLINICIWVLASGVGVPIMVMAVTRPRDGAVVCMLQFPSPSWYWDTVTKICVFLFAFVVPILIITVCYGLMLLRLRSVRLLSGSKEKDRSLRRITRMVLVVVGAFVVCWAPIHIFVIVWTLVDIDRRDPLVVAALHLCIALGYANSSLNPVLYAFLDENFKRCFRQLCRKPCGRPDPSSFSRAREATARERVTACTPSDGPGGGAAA
Sequence of Mucolipin-3 (Q8TDD5 whole entry): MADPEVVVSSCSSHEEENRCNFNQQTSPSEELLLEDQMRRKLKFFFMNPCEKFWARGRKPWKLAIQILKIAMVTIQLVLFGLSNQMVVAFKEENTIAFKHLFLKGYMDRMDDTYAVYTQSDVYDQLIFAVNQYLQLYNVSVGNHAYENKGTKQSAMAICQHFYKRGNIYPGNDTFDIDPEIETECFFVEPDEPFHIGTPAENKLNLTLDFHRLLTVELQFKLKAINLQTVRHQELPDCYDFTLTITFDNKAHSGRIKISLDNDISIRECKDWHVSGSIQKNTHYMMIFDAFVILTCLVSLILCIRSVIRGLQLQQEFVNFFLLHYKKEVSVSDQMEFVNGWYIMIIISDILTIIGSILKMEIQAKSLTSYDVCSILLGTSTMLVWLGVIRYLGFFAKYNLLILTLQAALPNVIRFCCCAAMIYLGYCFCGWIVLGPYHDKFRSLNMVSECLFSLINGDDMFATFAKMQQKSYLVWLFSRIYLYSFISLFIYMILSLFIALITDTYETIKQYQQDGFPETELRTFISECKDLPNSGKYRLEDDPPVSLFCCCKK
Sequence of Ion channel NompC (Q7T1G6 whole entry): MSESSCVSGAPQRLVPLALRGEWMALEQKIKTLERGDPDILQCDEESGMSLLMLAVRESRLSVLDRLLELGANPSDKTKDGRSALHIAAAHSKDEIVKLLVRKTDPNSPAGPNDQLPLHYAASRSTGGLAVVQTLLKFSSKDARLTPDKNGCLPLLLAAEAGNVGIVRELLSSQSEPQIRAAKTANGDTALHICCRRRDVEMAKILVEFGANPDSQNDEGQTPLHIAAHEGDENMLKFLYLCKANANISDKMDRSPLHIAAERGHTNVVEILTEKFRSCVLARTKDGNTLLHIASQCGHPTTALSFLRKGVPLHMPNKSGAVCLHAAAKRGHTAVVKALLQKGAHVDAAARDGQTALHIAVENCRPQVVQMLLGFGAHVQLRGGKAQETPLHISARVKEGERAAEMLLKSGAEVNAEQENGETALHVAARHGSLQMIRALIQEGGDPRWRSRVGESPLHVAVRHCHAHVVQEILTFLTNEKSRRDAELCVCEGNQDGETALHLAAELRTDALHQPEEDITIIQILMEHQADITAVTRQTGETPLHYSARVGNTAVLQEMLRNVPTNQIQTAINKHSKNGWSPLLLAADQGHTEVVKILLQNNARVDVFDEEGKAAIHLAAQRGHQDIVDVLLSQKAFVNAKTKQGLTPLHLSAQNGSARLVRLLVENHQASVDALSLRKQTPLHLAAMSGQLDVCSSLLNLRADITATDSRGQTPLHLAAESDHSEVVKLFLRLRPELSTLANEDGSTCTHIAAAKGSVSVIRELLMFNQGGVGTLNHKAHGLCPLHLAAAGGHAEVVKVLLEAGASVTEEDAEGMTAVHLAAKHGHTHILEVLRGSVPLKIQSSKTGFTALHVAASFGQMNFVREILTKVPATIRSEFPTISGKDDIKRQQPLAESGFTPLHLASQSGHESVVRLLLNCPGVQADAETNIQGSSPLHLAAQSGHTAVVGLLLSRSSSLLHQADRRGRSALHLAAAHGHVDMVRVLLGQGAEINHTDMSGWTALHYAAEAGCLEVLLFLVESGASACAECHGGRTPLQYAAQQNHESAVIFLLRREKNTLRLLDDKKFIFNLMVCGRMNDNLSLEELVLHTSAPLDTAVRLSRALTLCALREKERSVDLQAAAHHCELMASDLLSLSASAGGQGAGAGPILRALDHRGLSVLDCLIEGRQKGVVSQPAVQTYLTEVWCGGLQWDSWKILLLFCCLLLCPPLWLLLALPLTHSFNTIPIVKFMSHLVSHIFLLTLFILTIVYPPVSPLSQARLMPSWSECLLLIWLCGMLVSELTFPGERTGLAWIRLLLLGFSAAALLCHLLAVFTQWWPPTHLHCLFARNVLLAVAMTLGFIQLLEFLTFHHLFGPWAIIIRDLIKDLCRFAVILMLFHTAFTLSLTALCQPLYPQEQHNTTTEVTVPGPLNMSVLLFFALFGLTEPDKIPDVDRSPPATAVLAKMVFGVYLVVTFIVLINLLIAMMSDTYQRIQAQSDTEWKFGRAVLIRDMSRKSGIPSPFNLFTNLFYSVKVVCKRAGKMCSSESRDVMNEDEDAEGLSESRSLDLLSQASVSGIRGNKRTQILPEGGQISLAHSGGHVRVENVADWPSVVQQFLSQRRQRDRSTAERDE

SMILES: CC(C)(C)S(=O)(=O)/C(C#N)=N/Nc1ccc(Cl)cc1
- EC50 [13]: > 29.9 µM (inactive)
- EC50 [14]: > 29.9 µM (not active)
- IC50 [15]: 1.32 µM (active)

SMILES: CCNC(=S)N/N=C/c1cc(Br)cc(Br)c1OC
- Absolute IC50 (CHOP) [16]: 10 µM

Second part, the molecule after the results:

- EC50 [1]: > 32 µM (inactive)
- EC50 [2]: > 32 µM (inactive)
- IC50 [3]: > 32 µM (inactive)
- IC50 [4]: > 32 µM (inactive)
- EC50 [5]: > 32 µM (inactive)
- IC50 [6]: > 32 µM (inactive)
- EC50 [7]: > 32 µM (inactive)
SMILES: O=C(Nc1cccc(S(=O)(=O)N2CCOCC2)c1)c1cc2c(s1)CCCC2

- IC50 [8]: 2.42 µM (active)
- IC50 [9]: 3.81 µM (active)
- IC50 [10]: > 32 µM (inactive)
- IC50 [11]: > 32 µM (inactive)
- IC50 [12]: 0.147 µM (active)
SMILES: O=C(Cn1c(=O)c2cccn2c2cc(Br)cnc21)NCCCN1CCN(c2ccc3c(c2)OCO3)CC1

- IC50 [17]: > 50 µM (inactive)
SMILES: Cc1cccc(C)c1OCC(=O)N/N=C/c1cc2c(cc1[N+](=O)[O-])OCO2
